Laboratory results reported in patent US20250051337A1 (priority 2021, published 2025).
pIC50: −log10 of the molar value. Read-outs that look alike come from different tables or passages of the source.

Experiments:
STK4 = STK4 (Homo sapiens (Human), UniProt Q13043); assay: ADP-Glo kinase assay, STK4; type: biochemical
Protocol: (§1) The STK3 kinase assay was performed in 5 μL reaction buffer containing 50 ng recombinant human STK3 protein (full length, SignalChem #S24-10G; Richmond, Canada), 250 μg/mL myelin basic protein (Sigma-Aldrich #M1891; St. Louis, MO, USA), and 50 μM ATP (Sigma-Aldrich #A7699). The STK4 kinase assay was performed in 5 μL reaction buffer containing 50 ng recombinant human STK4 protein (full length, SignalChem #S25-10G), 300 μg/mL Axltide (SignalChem #A16-58), and 50 μM ATP. […] Three experiments were performed, each in triplicate.

STK3 = STK3 (Homo sapiens (Human), UniProt Q13188); assay: ADP-Glo kinase assay, STK3; type: biochemical
STK3, sequence (Q13188 whole entry): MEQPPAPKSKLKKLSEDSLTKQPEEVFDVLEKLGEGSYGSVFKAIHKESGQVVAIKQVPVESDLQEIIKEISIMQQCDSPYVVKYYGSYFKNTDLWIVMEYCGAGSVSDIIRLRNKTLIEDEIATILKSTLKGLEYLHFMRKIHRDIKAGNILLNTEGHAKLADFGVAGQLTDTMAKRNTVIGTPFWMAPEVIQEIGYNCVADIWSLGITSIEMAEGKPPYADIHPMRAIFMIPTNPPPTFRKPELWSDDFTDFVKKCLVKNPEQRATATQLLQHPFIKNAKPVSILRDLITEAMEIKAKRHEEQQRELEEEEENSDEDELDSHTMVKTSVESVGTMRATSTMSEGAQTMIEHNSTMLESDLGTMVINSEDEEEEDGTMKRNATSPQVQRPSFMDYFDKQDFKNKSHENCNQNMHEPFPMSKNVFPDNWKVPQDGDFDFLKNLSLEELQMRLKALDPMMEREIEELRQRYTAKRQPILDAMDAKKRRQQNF
Protocol: as §1

[1] = ADP-Glo, 50 μM ATP, read-out: STK4 IC50
[2] = ADP-Glo, 50 μM ATP, read-out: STK3 IC50

STK4, sequence (Q13043 whole entry): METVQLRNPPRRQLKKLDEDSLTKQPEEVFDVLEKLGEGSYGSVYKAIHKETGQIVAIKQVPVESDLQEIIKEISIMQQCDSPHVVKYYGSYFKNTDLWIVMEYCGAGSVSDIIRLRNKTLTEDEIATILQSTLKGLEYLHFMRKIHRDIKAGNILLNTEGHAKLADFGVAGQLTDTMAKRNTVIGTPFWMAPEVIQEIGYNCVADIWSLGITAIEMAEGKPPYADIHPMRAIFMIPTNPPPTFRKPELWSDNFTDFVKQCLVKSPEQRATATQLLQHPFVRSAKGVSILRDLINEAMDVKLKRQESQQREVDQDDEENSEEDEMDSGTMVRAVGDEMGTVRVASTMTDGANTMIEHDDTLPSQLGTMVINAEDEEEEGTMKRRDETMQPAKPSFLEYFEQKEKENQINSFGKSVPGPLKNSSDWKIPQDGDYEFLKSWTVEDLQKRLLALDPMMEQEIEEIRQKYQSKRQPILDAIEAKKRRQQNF

SMILES | pIC50 (STK4; [1]) | pIC50 (STK3; [2]) | pIC50 (STK3) | pIC50 (STK4)
c1ccc(-c2c[nH]c3ncnc(N4CCOCC4)c23)cc1 [Compound 1, 4-(5-Phenyl-7H-pyrrolo[2,3-d]pyrimidin-4-yl)morpholine] | > 6.00 | > 6.00 |  | 
Fc1ccccc1-c1c[nH]c2ncnc(N3CCOCC3)c12 [Compound 3, 4-(5-(2-Fluorophenyl)-7H-pyrrolo[2,3-d]pyrimidin-4-yl)morpholine] |  | > 6.00 |  | 
COc1ccccc1-c1c[nH]c2ncnc(N3CCOCC3)c12 [Compound 4, 4-(5-(2-Methoxyphenyl)-7H-pyrrolo[2,3-d]pyrimidin-4-yl)morpholine] |  | > 6.00 |  | 
COc1cccc(-c2c[nH]c3ncnc(N4CCOCC4)c23)c1 [Compound 8, 4-(5-(3-Methoxyphenyl)-7H-pyrrolo[2,3-d]pyrimidin-4-yl)morpholine] |  | > 6.00 |  | 
Cc1ccc(-c2c[nH]c3ncnc(N4CCOCC4)c23)cc1 [Compound 9, 4-(5-(p-tolyl)-7H-pyrrolo[2,3-d]pyrimidin-4-yl)morpholine] |  |  | 5.30 to 6.00 | 
Fc1ccc(-c2c[nH]c3ncnc(N4CCOCC4)c23)cc1 [Compound 10, 4-(5-(4-Fluorophenyl)-7H-pyrrolo[2,3-d]pyrimidin-4-yl)morpholine] |  | > 6.00 |  | 
c1csc(-c2c[nH]c3ncnc(N4CCOCC4)c23)c1 [Compound 12, 4-(5-(Thiophen-2-yl)-7H-pyrrolo[2,3-d]pyrimidin-4-yl)morpholine] |  | > 6.00 |  | 
c1coc(-c2c[nH]c3ncnc(N4CCOCC4)c23)c1 [Compound 13, 4-(5-(Furan-2-yl)-7H-pyrrolo[2,3-d]pyrimidin-4-yl)morpholine] |  | > 6.00 |  | 
c1nc(N2CCOCC2)c2c(-c3ccoc3)c[nH]c2n1 [Compound 14, 4-(5-(Furan-3-yl)-7H-pyrrolo[2,3-d]pyrimidin-4-yl)morpholine] |  | > 6.00 |  | 
CN(C)c1ncnc2[nH]cc(-c3cccc(Cl)c3)c12 [Compound 17, 5-(3-Chlorophenyl)-N,N-dimethyl-7H-pyrrolo[2,3-d]pyrimidin-4-amine] |  | > 6.00 |  | 
Clc1cccc(-c2c[nH]c3ncnc(NCC4CC4)c23)c1 [Compound 18, 5-(3-Chlorophenyl)-N-(cyclopropylmethyl)-7H-pyrrolo[2,3-d]pyrimidin-4-amine] |  | > 6.00 |  | 
Clc1cccc(-c2n[nH]c3ncnc(N4CCOCC4)c23)c1 [Compound 19, 4-(3-(3-chlorophenyl)-1H-pyrazolo[3,4-d]pyrimidin-4-yl)morpholine] |  |  | 5.30 to 6.00 | 5.30 to 6.00
Clc1cccc(-c2csc3ncnc(N4CCOCC4)c23)c1 [Compound 20, 4-(5-(3-Chlorophenyl)thieno[2,3-d]pyrimidin-4-yl)morpholine] |  | < 5.30 |  | 
Clc1cccc(-c2coc3ncnc(N4CCOCC4)c23)c1 [Compound 21, 5-(3-Chlorophenyl)-4-morpholinofuro[2,3-d]pyrimidine] |  | < 5.30 |  | 
Clc1cccc(-c2c[nH]c3ccnc(N4CCOCC4)c23)c1 [Compound 22, 4-(3-(3-Chlorophenyl)-1H-pyrrolo[3,2-c]pyridin-4-yl)morpholin] |  | < 5.30 |  | 
Clc1ccccc1-c1c[nH]c2ncnc(N3CCOCC3)c12 [Compound 24, 4-(5-(2-Chlorophenyl)-7H-pyrrolo[2,3-d]pyrimidin-4-yl)morpholine] | 5.30 to 6.00 | 5.30 to 6.00 |  | 
Clc1ccc(-c2c[nH]c3ncnc(N4CCOCC4)c23)cc1 [Compound 25, 4-(5-(4-Chlorophenyl)-7H-pyrrolo[2,3-d]pyrimidin-4-yl)morpholine] | 5.30 to 6.00 | > 6.00 |  | 
COc1ccc(-c2c[nH]c3ncnc(N4CCOCC4)c23)cc1 [Compound 26, 4-(5-(4-methoxyphenyl)-7H-pyrrolo[2,3-d]pyrimidin-4-yl)morpholine] | > 6.00 | 5.30 to 6.00 |  | 
FC(F)(F)Oc1cccc(-c2c[nH]c3ncnc(N4CCOCC4)c23)c1 [Compound 27, 4-(5-(3-(trifluoromethoxy)phenyl)-7H-pyrrolo[2,3-d]pyrimidin-4-yl)morpholine] | 5.30 to 6.00 | 5.30 to 6.00 |  | 
FC(F)(F)Oc1ccc(-c2c[nH]c3ncnc(N4CCOCC4)c23)cc1 [Compound 28, 4-(5-(4-(trifluoromethoxy)phenyl)-7H-pyrrolo[2,3-d]pyrimidin-4-yl)morpholine] | 5.30 to 6.00 | 5.30 to 6.00 |  | 
CC(=O)c1ccc(-c2c[nH]c3ncnc(N4CCOCC4)c23)cc1 [Compound 29, 1-(4-(4-morpholino-7H-pyrrolo[2,3-d]pyrimidin-5-yl)phenyl)ethan-1-one] | 5.30 to 6.00 | < 5.30 |  | 
Clc1ccc(-c2c[nH]c3ncnc(N4CCOCC4)c23)cc1Cl [Compound 30, 4-(5-(3,4-dichlorophenyl)-7H-pyrrolo[2,3-d]pyrimidin-4-yl)morpholine] | 5.30 to 6.00 | 5.30 to 6.00 |  | 

SMILES | pIC50 (STK4; [1]) | pIC50 (STK3; [2]) | pIC50 (STK3) | pIC50 (STK4)
Clc1cc(-c2c[nH]c3ncnc(N4CCOCC4)c23)ccn1 [Compound 31, 4-(5-(2-chloropyridin-4-yl)-7H-pyrrolo[2,3-d]pyrimidin-4-yl)morpholine] | 5.30 to 6.00 | 5.30 to 6.00 |  | 
Fc1cnc(Cl)cc1-c1c[nH]c2ncnc(N3CCOCC3)c12 [Compound 32, 4-(5-(2-chloro-5-fluoropyridin-4-yl)-7H-pyrrolo[2,3-d]pyrimidin-4-yl)morpholine] | 5.30 to 6.00 | < 5.30 |  | 
Fc1c(-c2c[nH]c3ncnc(N4CCOCC4)c23)ccnc1Cl [Compound 33, 4-(5-(2-chloro-3-fluoropyridin-4-yl)-7H-pyrrolo[2,3-d]pyrimidin-4-yl)morpholine] | < 5.30 | < 5.30 |  | 
Clc1ncccc1-c1c[nH]c2ncnc(N3CCOCC3)c12 [Compound 34, 4-(5-(2-chloropyridin-3-yl)-7H-pyrrolo[2,3-d]pyrimidin-4-yl)morpholine] | < 5.30 | < 5.30 |  | 
c1cc(-c2c[nH]c3ncnc(N4CCOCC4)c23)ccn1 [Compound 35, 4-(5-(pyridin-4-yl)-7H-pyrrolo[2,3-d]pyrimidin-4-yl)morpholine] | < 5.30 | < 5.30 |  | 
c1ncc(-c2c[nH]c3ncnc(N4CCOCC4)c23)cn1 [Compound 36, 4-(5-(pyrimidin-5-yl)-7H-pyrrolo[2,3-d]pyrimidin-4-yl)morpholine] | < 5.30 | < 5.30 |  | 
Cc1cnccc1-c1c[nH]c2ncnc(N3CCOCC3)c12 [Compound 37, 4-(5-(3-methylpyridin-4-yl)-7H-pyrrolo[2,3-d]pyrimidin-4-yl)morpholine] | < 5.30 | < 5.30 |  | 
COc1ncc(-c2c[nH]c3ncnc(N4CCOCC4)c23)cn1 [Compound 38, 4-(5-(2-methoxypyrimidin-5-yl)-7H-pyrrolo[2,3-d]pyrimidin-4-yl)morpholine] | < 5.30 | < 5.30 |  | 
CS(=O)(=O)c1cccc(-c2c[nH]c3ncnc(N4CCOCC4)c23)c1 [Compound 39, 4-(5-(3-(methylsulfonyl)phenyl)-7H-pyrrolo[2,3-d]pyrimidin-4-yl)morpholine] | < 5.30 | < 5.30 |  | 
CS(=O)(=O)c1ccc(-c2c[nH]c3ncnc(N4CCOCC4)c23)cc1 [Compound 40, 4-(5-(4-(methylsulfonyl)phenyl)-7H-pyrrolo[2,3-d]pyrimidin-4-yl)morpholine] | < 5.30 | < 5.30 |  | 
Cn1cc(-c2c[nH]c3ncnc(N4CCOCC4)c23)cn1 [Compound 41, 4-(5-(1-methyl-1H-pyrazol-4-yl)-7H-pyrrolo[2,3-d]pyrimidin-4-yl)morpholine] | > 6.00 | 5.30 to 6.00 |  | 
c1nc(N2CCOCC2)c2c(-c3cnoc3)c[nH]c2n1 [Compound 42, 4-(5-(isoxazol-4-yl)-7H-pyrrolo[2,3-d]pyrimidin-4-yl)morpholine] | > 6.00 | 5.30 to 6.00 |  | 
Cc1noc(C)c1-c1c[nH]c2ncnc(N3CCOCC3)c12 [Compound 43, 4-(5-(3,5-dimethylisoxazol-4-yl)-7H-pyrrolo[2,3-d]pyrimidin-4-yl)morpholine] | < 5.30 | < 5.30 |  | 
Clc1cccc(-c2c[nH]c3ncnc(N4CCCC4)c23)c1 [Compound 44, 5-(3-chlorophenyl)-4-(pyrrolidin-1-yl)-7H-pyrrolo[2,3-d]pyrimidine] | > 6.00 | > 6.00 |  | 
CC(=O)N1CCN(c2ncnc3[nH]cc(-c4cccc(Cl)c4)c23)CC1 [Compound 45, 1-(4-(5-(3-chlorophenyl)-7H-pyrrolo[2,3-d]pyrimidin-4-yl)piperazin-1-yl)ethan-1-one] | > 6.00 | 5.30 to 6.00 |  | 
Clc1cccc(-c2c[nH]c3ncnc(N4CCC4)c23)c1 [Compound 46, 4-(azetidin-1-yl)-5-(3-chlorophenyl)-7H-pyrrolo[2,3-d]pyrimidine] | 5.30 to 6.00 | 5.30 to 6.00 |  | 
CN1CCN(c2ncnc3[nH]cc(-c4cccc(Cl)c4)c23)CC1 [Compound 47, 5-(3-chlorophenyl)-4-(4-methylpiperazin-1-yl)-7H-pyrrolo[2,3-d]pyrimidine] | 5.30 to 6.00 | 5.30 to 6.00 |  | 
CCN1CCN(c2ncnc3[nH]cc(-c4cccc(Cl)c4)c23)CC1 [Compound 48, 5-(3-chlorophenyl)-4-(4-ethylpiperazin-1-yl)-7H-pyrrolo[2,3-d]pyrimidine] | < 5.30 | < 5.30 |  | 
CCNc1ncnc2[nH]cc(-c3cccc(Cl)c3)c12 [Compound 49, 5-(3-chlorophenyl)-N-ethyl-7H-pyrrolo[2,3-d]pyrimidin-4-amine] | > 6.00 | > 6.00 |  | 
CC1(O)CCN(c2ncnc3[nH]cc(-c4cccc(Cl)c4)c23)CC1 [Compound 103, 1-(5-(3-chlorophenyl)-7H-pyrrolo[2,3-d]pyrimidin-4-yl)-4-methylpiperidin-4-ol] |  | > 6.00 |  | 
CCN(CCO)c1ncnc2[nH]cc(-c3cccc(Cl)c3)c12 [Compound 114, 2-((5-(3-chlorophenyl)-7H-pyrrolo[2,3-d]pyrimidin-4-yl)(ethyl)amino)ethan-1-ol] |  | > 6.00 |  | 
